In US12180226B2, “Spirotricycle RIPK1 inhibitors and methods of uses thereof” (Merck Sharp & Dohme LLC, priority 2021, dated 2024):

Biological target: RIPK1 (recombinant GST-RIPK1 kinase domain, residues 1-327) (Homo sapiens (Human), UniProt Q13546)
Assay: RIPK1-ADP-Glo Enzymatic Assay
Type: biochemical
Settings: ADP-Glo; 25 nM GST-RIPK1, 300 μM ATP; assay lower limit ~25 nM; read-out: RIPK1 V0 Ec50
Method in brief: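 Compounds titrated 10-pt 1:3 from 100000 nM top (1% DMSO); 30 min preinc w/ 25 nM Sf21-expressed enzyme, RT; start w/ ATP (300 μM final) + dephos-MBP (3 μM); 150 min; ADP-Glo lumi; 4-param fit → EC50.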

Chain of RIPK1 (recombinant GST-RIPK1 kinase domain, residues 1-327) (Q13546 1-327): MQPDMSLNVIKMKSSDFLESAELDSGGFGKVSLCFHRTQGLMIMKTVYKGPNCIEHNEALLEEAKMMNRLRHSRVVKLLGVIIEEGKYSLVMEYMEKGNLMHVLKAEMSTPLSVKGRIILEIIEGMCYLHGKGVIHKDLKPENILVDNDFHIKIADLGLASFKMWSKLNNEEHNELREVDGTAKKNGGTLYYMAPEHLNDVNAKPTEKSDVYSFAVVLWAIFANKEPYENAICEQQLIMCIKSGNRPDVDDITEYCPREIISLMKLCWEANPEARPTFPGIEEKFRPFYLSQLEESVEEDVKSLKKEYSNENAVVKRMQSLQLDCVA

## COC(=O)c1cnc(N2CCC3(CC2)O[C@@H]2CC[C@@H](c4ccccc4)N2C3=O)cc1OC [Example 4.210, methyl 4-methoxy-6-[(5′S,7a′R)-3′-oxo-5′-phenyltetrahydro-1H,3′H-spiro[piperidine-4,2′-pyrrolo[2,1-b] [1,3]oxazol]-1-yl]pyridine-3-carboxylate]
  EC50: 0.076 µM

## C#Cc1cnc(N2CCC3(CC2)O[C@@H]2CC[C@@H](c4ccccc4)N2C3=O)n2ncnc12 [Example 21.23, (5′S,7a′R)-1-(8-ethynyl[1,2,4]triazolo [1,5-c]pyrimidin-5-yl)-5′-phenyltetrahydro-3′H-spiro[piperidine-4,2′-pyrrolo[2,1-b][1,3]oxazol]-3′-one]
  EC50: < 0.025 µM

## O=C(c1cccc2nccnc12)N1CCC2(CC1)O[C@@H]1CC[C@@H](c3cc(F)cc(F)c3)N1C2=O [Example 6.55, (5′S,7a′R)-5′-(3,5-difluorophenyl)-1-(quinoxaline-5-carbon-yl)tetrahydro-3′H-spiro[piperidine-4,2′-pyrrolo[2,1-b][1,3]-oxazol]-3′-one]
  EC50: 0.28 µM

## Cc1nc(N2CCC3(CC2)OC2CCC(c4cnccn4)N2C3=O)ccc1C#N (centres unmarked) [Example 4.142, 2-methyl-6-[3′-oxo-5′-(pyrazin-2-yl)tetrahydro-1H,3′H-spiro[piperidine-4,2′-pyrrolo[2,1-b] [1,3]oxazol]-1-yl]pyridine-3-carbonitrile]
  EC50: < 0.025 µM

## Cc1ncc([C@@H]2CC[C@H]3OC4(CCN(C(=O)c5ccccc5)CC4F)C(=O)N32)cc1F (stereo partly drawn) [Example 2.10, (5′S,7a′R)-1-(benzenecarbonyl)-3-fluoro-5′-(5-fluoro-6-methylpyridin-3-yl)tetrahydro-3′H-spiro[piperidine-4,2′-pyrrolo[2,1-b][1,3]oxazol]-3′-one]
  EC50: 0.136 µM

## N#Cc1cc(N2CCC3(CC2)O[C@@H]2CC[C@@H](c4cccc(F)c4)N2C3=O)ncn1 [Example 4.122, 6-[(5′S,7a′R)-5′-(3-fluorophenyl)-3′-oxotetrahydro-1H,3′H-spiro[piperidine-4,2′-pyrrolo[2,1-b] [1,3]oxazol]-1-yl]pyrimidine-4-carbonitrile]
  EC50: 0.0356 µM

## O=C(c1ccccc1)N1CCC2(CC1)O[C@@H]1CC[C@@H](c3ccccc3F)N1C2=O [Example 1.13, (5′S,7a′R)-1-benzoyl-5′-(2-fluorophenyl)tetrahydro-3′H-spiro[piperidine-4,2′-pyrrolo[2,1-b]oxazol]-3′-one]
  EC50: < 0.025 µM

## Cn1nccc1C(=O)N1CCC2(CC1)O[C@@H]1CC[C@@H](c3cc(F)cc(F)c3)N1C2=O [Example 5.38, (5′S,7a′R)-5′-(3,5-difluoro-phenyl)-1-(1-methyl-1H-pyrazole-5-carbonyl)tetra-hydro-3′H-spiro[piperi-dine-4,2′-pyrrolo[2,1-b]oxazol]-3′-one]
  EC50: 0.103 µM

## N#Cc1cncc([C@@H]2CC[C@H]3SC4(CCN(c5ccnc6c(F)cnn56)CC4)C(=O)N32)c1 [Example 4.112, 5-[(5′S,7a′R)-1-(3-fluoropyrazolo[1,5-a]pyrimidin-7-yl)-3′-oxotetrahydro-3′H-spiro[piperidine-4,2′-pyrrolo[2,1-b] [1,3]thiazol]-5′-yl]pyridine-3-carbonitrile]
  EC50: < 0.025 µM

## O=C(c1ccccc1)N1CCC2(CC1)CC1COC(c3cc(F)cc(F)c3)N1C2=O (centres unmarked) [Example 6.163, 1-(benzenecarbonyl)-3′-(3,5-difluoro-phenyl)dihydro-1′H,3′H,5′H-spiro [piperidine-4,6′-pyrrolo[1,2-c][1,3]oxazol]-5′-one]
  EC50: 0.0291 µM

## N#Cc1ccc(N2CCC3(CC2)O[C@@H]2CC[C@@H](c4cc(F)cc(F)c4)N2C3=O)nc1 [Example 4.44, 6-[(5′S,7a′R)-5′-(3,5-difluorophenyl)-3′-oxotetrahydro-1H,3′H-spiro[piperidine-4,2′-pyrrolo[2,1-b] [1,3]oxazol]-1-yl]pyridine-3-carbonitrile]
  EC50: < 0.025 µM
